Measured values reported in PubChem BioAssay AID330 (DTP/NCI, 2004).
“And” between values parts separate entries of the source, which are not always exact repeats. Equal values may be shown once. Toxic doses and inconclusive results are not listed. How the source made its calls: active means survival T/C of 150% or more; inactive means T/C below 125% in these data.

Tested on: P388 leukemia ip, CD2F1 mice, survival T/C
Test: NCI In Vivo Anticancer Drug Screen. Data for tumor model P388 Leukemia (intraperitoneal) in CD2F1 (CDF1) mice
Settings: endpoint: median survival time, higher = longer survival
Method in brief: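 Mice carrying the transplanted tumor received test compound or vehicle. Survival was recorded in each group, and the value is the treated-group measurement divided by that of the vehicle-treated control group.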

[1] = dose: 100.0 mg/kg/injection, schedule: Q04DX003 (ip), vehicle: Klucel (hydroxypropylcellulose) (HPC)
[2] = dose: 200.0 mg/kg/injection, schedule: Q04DX003 (ip), vehicle: Klucel (hydroxypropylcellulose) (HPC)
[3] = dose: 60.0 mg/kg/injection, schedule: Q01DX005 (ip), vehicle: saline with Tween-80
[4] = dose: 120.0 mg/kg/injection, schedule: Q01DX005 (ip), vehicle: saline with Tween-80
[5] = dose: 240.0 mg/kg/injection, schedule: Q01DX005 (ip), vehicle: saline with Tween-80
[6] = dose: 50.0 mg/kg/injection, schedule: Q01DX009 (ip), vehicle: saline
[7] = dose: 100.0 mg/kg/injection, schedule: Q01DX009 (ip), vehicle: saline
[8] = dose: 200.0 mg/kg/injection, schedule: Q01DX009 (ip), vehicle: saline
[9] = dose: 25.0 mg/kg/injection, schedule: Q04DX003 (ip), vehicle: saline with Tween-80
[10] = dose: 50.0 mg/kg/injection, schedule: Q04DX003 (ip), vehicle: saline with Tween-80
[11] = dose: 100.0 mg/kg/injection, schedule: Q04DX003 (ip), vehicle: saline with Tween-80
[12] = dose: 50.0 mg/kg/injection, schedule: Q01DX009 (ip), vehicle: saline with Tween-80

Measured: T/C

COC1CC(=O)C2OC(c3ccccc3)OCC2O1 (stereo not drawn)
inactive: dose: 1.56 mg/kg/injection, schedule: Q01DX009 (ip), vehicle: other 88 % of control | dose: 3.13 mg/kg/injection, schedule: Q01DX009 (ip), vehicle: other 94 % of control | dose: 6.25 mg/kg/injection, schedule: Q01DX009 (ip), vehicle: other 106 % of control | dose: 12.5 mg/kg/injection, schedule: Q01DX009 (ip), vehicle: other 96 % of control | dose: 25.0 mg/kg/injection, schedule: Q01DX009 (ip), vehicle: other 100 % of control and 97 % of control | dose: 50.0 mg/kg/injection, schedule: Q01DX009 (ip), vehicle: other 99 % of control | dose: 100.0 mg/kg/injection, schedule: Q01DX009 (ip), vehicle: other 92 % of control | dose: 200.0 mg/kg/injection, schedule: Q01DX009 (ip), vehicle: other 87 % of control | dose: 400.0 mg/kg/injection, schedule: Q01DX009 (ip), vehicle: other 98 % of control

COC(=O)CC(N)C(=O)O (stereo not drawn)
inactive: dose: 12.5 mg/kg/injection, schedule: Q01DX005 (ip), vehicle: saline 97 % of control | dose: 25.0 mg/kg/injection, schedule: Q01DX005 (ip), vehicle: saline 89 % of control | dose: 50.0 mg/kg/injection, schedule: Q01DX005 (ip), vehicle: saline 99 % of control | dose: 100.0 mg/kg/injection, schedule: Q01DX005 (ip), vehicle: saline 97 % of control | dose: 200.0 mg/kg/injection, schedule: Q01DX005 (ip), vehicle: saline 94 % of control

CC(=O)N1CCc2ccccc2C1C1NCCc2ccccc21 (stereo not drawn)
inactive: [1] 95 % of control | [2] 94 % of control

Nc1ncc2c(n1)-c1ccccc1OC2
inactive: [3] 92 % of control | [4] 103 % of control | [5] 95 % of control

N#CC(N)(C#N)C(N)=O
inactive: dose: 100.0 mg/kg/injection, schedule: Q01DX001 (ip), vehicle: saline 101 % of control | dose: 200.0 mg/kg/injection, schedule: Q01DX001 (ip), vehicle: saline 101 % of control | dose: 400.0 mg/kg/injection, schedule: Q01DX001 (ip), vehicle: saline 103 % of control

COC(=O)c1ncn(Cc2ccccc2)c1O (tested in a mixture with another compound)
inactive: dose: 60.0 mg/kg/injection, schedule: Q01DX005 (ip), vehicle: water 93 % of control | dose: 120.0 mg/kg/injection, schedule: Q01DX005 (ip), vehicle: water 107 % of control | dose: 240.0 mg/kg/injection, schedule: Q01DX005 (ip), vehicle: water 110 % of control

COC(=O)C(C)CC(C)(CC(C)(CC(C)(C)C(=O)OC)C(=O)OC)C(=O)OC (stereo not drawn) (tested in a mixture with another compound)
inactive: [3] 100 % of control | [4] 96 % of control | [5] 100 % of control

CC(=O)Oc1cccn(C)c1=O
inactive: dose: 37.5 mg/kg/injection, schedule: Q01DX009 (ip), vehicle: saline 108 % of control | dose: 75.0 mg/kg/injection, schedule: Q01DX009 (ip), vehicle: saline 103 % of control | dose: 150.0 mg/kg/injection, schedule: Q01DX009 (ip), vehicle: saline 113 % of control | dose: 300.0 mg/kg/injection, schedule: Q01DX009 (ip), vehicle: saline 119 % of control | dose: 500.0 mg/kg/injection, schedule: Q01DX009 (ip), vehicle: saline 117 % of control

C1=CCC23CCCCC2(C1)CN(/N=N/N1CC24CC=CCC2(CCCC4)C1)C3 (stereo not drawn)
inactive: dose: 6.25 mg/kg/injection, schedule: Q01DX009 (ip), vehicle: Klucel (hydroxypropylcellulose) (HPC) 87 % of control | dose: 12.5 mg/kg/injection, schedule: Q01DX009 (ip), vehicle: Klucel (hydroxypropylcellulose) (HPC) 86 % of control

C1N2CN3CN1CP(C2)C3
inactive: [6] 112 % of control | [7] 115 % of control | [8] 106 % of control

O=C(OCOC(=O)N1CCOCC1)N1CCOCC1
inactive: [3] 105 % of control | [5] 94 % of control

CN1C(=O)C23CCCN2C(=O)C1(C)SC(=O)S3 (stereo not drawn)
inactive: [6] 98 % of control | [7] 101 % of control | [8] 98 % of control

[Cl][Pt].c1ccc([PH+](CCC[PH+](c2ccccc2)c2ccccc2)CCC[PH+](c2ccccc2)c2ccccc2)cc1
inactive: dose: 12.5 mg/kg/injection, schedule: Q04DX003 (ip), vehicle: saline with Tween-80 109 % of control | [9] 109 % of control | [10] 97 % of control | [11] 95 % of control | dose: 200.0 mg/kg/injection, schedule: Q04DX003 (ip), vehicle: saline with Tween-80 104 % of control

CCCCCCC(=O)/C=C/c1ccc(C)cc1
inactive: dose: 50.0 mg/kg/injection, schedule: Q01DX005 (ip), vehicle: Klucel (hydroxypropylcellulose) (HPC) 100 % of control | dose: 100.0 mg/kg/injection, schedule: Q01DX005 (ip), vehicle: Klucel (hydroxypropylcellulose) (HPC) 100 % of control | dose: 200.0 mg/kg/injection, schedule: Q01DX005 (ip), vehicle: Klucel (hydroxypropylcellulose) (HPC) 94 % of control

C1=C[N-]c2c3c(ccc2=C1)=CC=C[N-]3.C1=C[N-]c2c3c(ccc2=C1)=CC=C[N-]3.O=[N+]([O-])O.[Cu+]
inactive: dose: 1.56 mg/kg/injection, schedule: Q04DX002 (ip), vehicle: saline 100 % of control | dose: 3.12 mg/kg/injection, schedule: Q04DX002 (ip), vehicle: saline 99 % of control and 98 % of control | dose: 6.25 mg/kg/injection, schedule: Q04DX002 (ip), vehicle: saline 99 % of control and 110 % of control and 98 % of control | dose: 12.5 mg/kg/injection, schedule: Q04DX002 (ip), vehicle: saline 120 % of control and 97 % of control | dose: 25.0 mg/kg/injection, schedule: Q04DX002 (ip), vehicle: saline 111 % of control and 97 % of control

CNC(=O)OCc1cocc1COC(=O)NC
inactive: dose: 12.5 mg/kg/injection, schedule: Q01DX009 (ip), vehicle: distilled water + Tween-80 106 % of control | dose: 25.0 mg/kg/injection, schedule: Q01DX009 (ip), vehicle: distilled water + Tween-80 101 % of control | dose: 50.0 mg/kg/injection, schedule: Q01DX009 (ip), vehicle: distilled water + Tween-80 109 % of control | dose: 100.0 mg/kg/injection, schedule: Q01DX009 (ip), vehicle: distilled water + Tween-80 117 % of control

C(=C\CN(Cc1ccccc1)Cc1ccccc1)/CN(Cc1ccccc1)Cc1ccccc1
inactive: dose: 50.0 mg/kg/injection, schedule: Q04DX003 (ip), vehicle: Klucel (hydroxypropylcellulose) (HPC) 95 % of control | [1] 90 % of control | [2] 90 % of control

Cc1ccccc1SSc1ccccc1C
inactive: [12] 113 % of control

S=P(c1ccccc1)(N1CC1)N1CC1
inactive: dose: 25.0 mg/kg/injection, schedule: Q01DX009 (ip), vehicle: saline with Tween-80 109 % of control | [9] 104 % of control | [12] 104 % of control | [10] 104 % of control | dose: 100.0 mg/kg/injection, schedule: Q01DX009 (ip), vehicle: saline with Tween-80 86 % of control | [11] 100 % of control and 113 % of control

c1ccc(C(=C2C(=C(c3ccccc3)c3ccccc3)c3nc4ccccc4nc32)c2ccccc2)cc1
inactive: dose: 7.5 mg/kg/injection, schedule: Q01DX005 (ip), vehicle: saline with Tween-80 90 % of control | dose: 15.0 mg/kg/injection, schedule: Q01DX005 (ip), vehicle: saline with Tween-80 88 % of control | [3] 86 % of control | [4] 87 % of control | [5] 90 % of control

C[C@H](N)C(=O)/C=C/c1ccccc1
inactive: dose: 10.0 mg/kg/injection, schedule: Q01DX005 (ip), vehicle: saline 101 % of control | dose: 20.0 mg/kg/injection, schedule: Q01DX005 (ip), vehicle: saline 100 % of control | dose: 40.0 mg/kg/injection, schedule: Q01DX005 (ip), vehicle: saline 98 % of control

CC(=O)N[C@@H](Cc1ccc(N(CCCl)CCCl)cc1)C(=O)ON1C(=O)CCC1=O
active: dose: 5.8 mg/kg/injection, schedule: Q01DX009 (ip), vehicle: saline 168 % of control | dose: 5.8 mg/kg/injection, schedule: Q03HX008 (ip), vehicle: saline 160 % of control | dose: 11.6 mg/kg/injection, schedule: Q01DX009 (ip), vehicle: saline 190 % of control | dose: 11.6 mg/kg/injection, schedule: Q03HX008 (ip), vehicle: saline 195 % of control | dose: 23.2 mg/kg/injection, schedule: Q03HX008 (ip), vehicle: saline 260 % of control
